Where a name gives a salt, the structure may show the parent alone. Where only a bound is given, the exact number is not on record here.

This note sets out measurements from EP0888293B1, “N-ACYLAMINOALKYLHYDRAZINECARBOXIMIDAMIDES” (ALTEON Inc., priority 1995, dated 1997).

For assay [1], the target named is T1, inducible nitric oxide synthase (Mus musculus, UniProt P29477).
T1 construct: Nitric oxide (NO) production by macrophage cells (RAW 264.7) is induced with lipopolysaccharride; endogenous in cells; host or cells: RAW 264.7 macrophage cells, LPS-induced
Nature of the assay: Nitric oxide production by lipopolysaccharide-induced macrophage cells. In kind it is cell-based. The conditions noted are these: RAW 264.7 macrophage cells induced with lipopolysaccharide; test concentration not given.

Assay [2] has as its system N-acetyl glycyl-lysine methyl ester. In words: Inhibition of cross-linking of N-acetyl glycyl-lysine methyl ester in the presence of ribose (fluorescence). Conditions: N-acetylglycyllysine methyl ester + ribose, pH 7.4, 37°C, 16-24 hours, fluorescence 350/400 nm. The assay is classed as biochemical. Here is the method:
The following method was used to evaluate the ability of the compounds of the present invention to inhibit the cross-linking of N-acetyl glycyl-lysine methyl ester in the presence of ribose.
• 0.5 M sodium phosphate buffer pH 7.4 • N-acetylglycyllysine methyl ester in 0.5M sodium phosphate buffer, pH 7.4 • Ribose: 800 mM • Test compounds dissolved in the above buffer and the pH is adjusted to 7.4, if necessary
Reaction mixtures are prepared as follows:
and incubated at 37°C for 16-24 hours. At the end of the incubation period, the fluorescence is read using an excitation wavelength of 350 nm and emission wavelength of 400 nm.

In assay [3] the test system is fixed protein (gelatin, i.e., collagen) surface. Nature of the assay: Surface browning experiment on gelatin/paper disks. Conditions: 100 mM glucose-6-phosphate, one week at 50°C, pH 7.4; Peridex at final concentration of 0.04% chlorhexidine, no compound of Formula I. On the procedure:
To further study the ability of inhibitors of nonenzymatic browning to prevent the discoloration of protein on a surface, such as that which occurs on the tooth surface, the following surface browning experiment is performed. As a substitute for a pellicle-covered tooth surface, unexposed and developed photographic paper is used to provide a fixed protein (gelatin, i.e., collagen) surface on a paper backing. Five millimeter circles are punched and immersed for one week at 50°C in a solution of 100 mM glucose-6-phosphate in a 0.5 M phosphate buffer, pH 7.4, containing 3 mM sodium azide. Glucose-6-phosphate is a sugar capable of participating in nonenzymatic browning at a more rapid rate than glucose. In addition to the glucose-6-phosphate, chlorhexidine and/or a compound of Formula I are included. After incubation, the gelatin/paper disks are rinsed with water, observed for brown color, and photographed.

Regarding `Br.CC(=O)NCCNC(=N)NN` [N-(2-acetamidoethyl)hydrazine carboximidamide hydrobromide], in assay [1], the “% inhibition of NO release” value came out at 20%. In addition, the IC50 in assay [2] (hydrobromide) was determined as 11.5 mM.

For the compound `N=C(N)NN` [Aminoguanidine hydrochloride, reference compound], in assay [1], the “% inhibition of NO release” value stood at 44%. Besides, the IC50 in assay [2] was determined as 10 mM. For `CC(=O)NCCCNC(=N)NN` [N-(3-acetamidopropyl)hydrazinecarboximidamide] the same measures were 33% and greater than 10 mM. Regarding `CC(=O)NCCNC(=N)NN.Cl` [N-(2-acetamidoethyl)hydrazine carboximidamide hydrochloride], the “% inhibition of NO release” value in assay [1] was 15%. Also, the IC50 in assay [2] (hydrochloride) amounted to 10.6 mM. For `[H]/N=C(\N/C(=N/[H])NCCCCCCNC(=N)NC(=N)Nc1ccc(Cl)cc1)Nc1ccc(Cl)cc1` [chlorhexidine], in assay [3], the “browning of gelatin/paper disks” value is given as “significant browning”.

In general, IC50 refers to the point on the concentration scale where inhibition reaches its midpoint.
